The values that follow come from patent US9085584B2, “Substituted pyrido[3,2-E][1,2,4]-triazolo[4,3-A]pyrazines for the treatment of central nervous system disorders” (Boehringer Ingelheim International GmbH, priority 2012, dated 2015).

Structures are written as SMILES. pIC50: −log10 of the molar value.

Sequence of PDE 2A (O00408 whole entry, species assumed): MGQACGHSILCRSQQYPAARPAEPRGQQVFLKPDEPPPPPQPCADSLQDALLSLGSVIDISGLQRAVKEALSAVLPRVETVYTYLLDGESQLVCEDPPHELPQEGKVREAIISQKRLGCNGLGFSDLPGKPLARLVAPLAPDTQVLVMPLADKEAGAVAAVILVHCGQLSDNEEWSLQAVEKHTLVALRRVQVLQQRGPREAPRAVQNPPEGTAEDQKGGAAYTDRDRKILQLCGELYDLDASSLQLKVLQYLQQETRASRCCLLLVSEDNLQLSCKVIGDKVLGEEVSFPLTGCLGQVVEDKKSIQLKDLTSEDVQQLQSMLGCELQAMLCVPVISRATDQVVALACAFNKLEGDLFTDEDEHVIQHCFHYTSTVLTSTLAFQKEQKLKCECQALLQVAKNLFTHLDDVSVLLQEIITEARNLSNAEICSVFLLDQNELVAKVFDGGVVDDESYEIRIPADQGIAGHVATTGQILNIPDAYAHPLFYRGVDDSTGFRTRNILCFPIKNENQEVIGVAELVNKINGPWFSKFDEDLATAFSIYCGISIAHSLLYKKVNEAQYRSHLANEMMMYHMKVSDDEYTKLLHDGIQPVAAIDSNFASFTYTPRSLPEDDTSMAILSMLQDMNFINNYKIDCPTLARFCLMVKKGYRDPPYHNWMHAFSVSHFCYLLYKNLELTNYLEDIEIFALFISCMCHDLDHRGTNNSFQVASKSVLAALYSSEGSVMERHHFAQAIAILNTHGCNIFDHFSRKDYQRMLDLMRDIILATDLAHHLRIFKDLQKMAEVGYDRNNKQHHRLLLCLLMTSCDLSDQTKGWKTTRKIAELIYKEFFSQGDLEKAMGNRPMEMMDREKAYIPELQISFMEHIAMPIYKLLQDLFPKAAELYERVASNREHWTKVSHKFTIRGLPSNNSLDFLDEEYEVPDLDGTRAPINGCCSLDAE

The first data set addresses PDE 2A (Homo sapiens (Human), UniProt O00408). The experiment in a line: PDE 2A assay with fluorescent substrate (IMAP, fluorescence polarization). Format: biochemical. The settings on record: read-out: PDE2 IC50.
Description: Another, non radioactive, in-vitro assay was performed as follows • c) Phosphodiesterase (PDE) 2A and 10 Assay with Fluorescent Substrate Assay Principle:
The PDE reaction cleaves cAMP to AMP. The IMAP system (Molecular Device) using fluorescence polarization (FP) as detection principle was used to measure enzyme activity. A fluorescent labeled cAMP was used as substrate for the reaction, generating a labeled AMP. The fluorescent AMP binds specifically to the large M(III)-based nano-particles which reduces the rotational speed of the substrate and thus increases its polarization.
The inhibition of PDE 2A or 10 enzyme activity was assessed using IMAP-Phosphodiesterase-cAMP fluorescence labeled substrate (Molecular Devices, Order No. R7506), IMAP TR-FRET screening express (Molecular Devices, Order No. R8160, the TR-FRET component will not be used) and PDE 2A or PDE10 protein expressed upon baculovirus infection in SF9 cells.
All reactions were performed in 384 well plates, Perkin Elmer black optiplates and IMAP reaction buffer with 0.1% Tween20 (kit component)
Compounds were serial diluted in DMSO. With an intermediate dilution step with reaction buffer DMSO concentration was reduced to achieve 1% DMSO in the assay reaction. Setup of the assay started with 10 μl enzyme (˜10 ng/well, depending on prep. batch), 5 μl compound, reaction was started by addition of 5 μl labeled cAMP (30 nM, final concentration), immediately mixed for 15 seconds on a Eppendorf mixmate (2000 rpm) followed by an incubation at room temperature for 90 minutes in the dark. Reaction is stopped by adding of 60 μl binding buffer for FP/cAMP (kit component).
Each assay plate contained wells with vehicle controls (1% DMSO) for the measurement of non-inhibited reaction (=100% control) and wells without enzyme as 0% controls.
Turning to `Cc1nc2ccc(C(F)(F)F)nc2n2c(-c3cc(OC4COCC4O)ccc3Cl)nnc12` (single isomer, unassigned) [Example 111b], the pIC50 was 7.96.
Turning to `Cc1nc2ccc(C(F)(F)F)nc2n2c(-c3cc(C4(O)CCCOC4)ccc3Cl)nnc12` (single isomer, unassigned) [Example 114b], the pIC50 was 7.96.
In the case of `Cc1nc2ccc(C(F)(F)F)nc2n2c(-c3cc(OC4COCC4O)ccc3Cl)nnc12` (single isomer, unassigned) [Example 111a], the pIC50 is 7.19.
Still for that read-out and setting: in the case of `Cc1nc2cccnc2n2c(-c3cc(C4(O)CCCOC4)ccc3Cl)nnc12` (single isomer, unassigned) [Example 112b] it was 7.17; in that of `Cc1nc2ccc(C3CC3)nc2n2c(-c3cc(C4(O)CCCOC4)ccc3Cl)nnc12` (stereo not shown) [Example 113], 9.70; in that of `Cc1nc2ccc(C(F)(F)F)nc2n2c(-c3cc(C4(O)CCOC4)ccc3Cl)nnc12` (racemic) [Example 115], 7.41.
The same measure, in the same setting: in the case of `Cc1nc2ccc(C(F)(F)F)nc2n2c(-c3cc(C4(O)CCCOC4)ccc3Cl)nnc12` (racemic) [Example 114] it was 7.66; in that of `Cc1ccc2nc(C)c3nnc(-c4cc(CO)ccc4Cl)n3c2n1` [Example 60], 7.72; in that of `Cc1nc2ccc(C3CC3)nc2n2c(-c3cc(OC4COCC4O)ccc3F)nnc12` (racemic) [Example 107], 8.15.
Same read-out and setting: in the case of `Cc1nc2ccc(C(F)(F)F)nc2n2c(-c3cc(OC4COCC4O)ccc3F)nnc12` (racemic) [Example 106] it was 6.80.
With `Cc1nc2ccc(C(F)(F)F)nc2n2c(-c3cc(C4(O)CCCOC4)ccc3Cl)nnc12` (single isomer, unassigned) [Example 114a], the pIC50 was 8.05.
Same read-out and setting: in the case of `Cc1nc2ccc(C(F)(F)F)nc2n2c(-c3cc(C4(O)CCOC4)ccc3Cl)nnc12` (single isomer, unassigned) [Example 115a] it was 7.09.

The target of a further data set is PDE10 (Homo sapiens (Human), UniProt Q9Y233). Nature of the data set: PDE10 assay with fluorescent substrate (IMAP, fluorescence polarization). The format is biochemical.
Sequence of PDE10 (Q9Y233 whole entry, species assumed): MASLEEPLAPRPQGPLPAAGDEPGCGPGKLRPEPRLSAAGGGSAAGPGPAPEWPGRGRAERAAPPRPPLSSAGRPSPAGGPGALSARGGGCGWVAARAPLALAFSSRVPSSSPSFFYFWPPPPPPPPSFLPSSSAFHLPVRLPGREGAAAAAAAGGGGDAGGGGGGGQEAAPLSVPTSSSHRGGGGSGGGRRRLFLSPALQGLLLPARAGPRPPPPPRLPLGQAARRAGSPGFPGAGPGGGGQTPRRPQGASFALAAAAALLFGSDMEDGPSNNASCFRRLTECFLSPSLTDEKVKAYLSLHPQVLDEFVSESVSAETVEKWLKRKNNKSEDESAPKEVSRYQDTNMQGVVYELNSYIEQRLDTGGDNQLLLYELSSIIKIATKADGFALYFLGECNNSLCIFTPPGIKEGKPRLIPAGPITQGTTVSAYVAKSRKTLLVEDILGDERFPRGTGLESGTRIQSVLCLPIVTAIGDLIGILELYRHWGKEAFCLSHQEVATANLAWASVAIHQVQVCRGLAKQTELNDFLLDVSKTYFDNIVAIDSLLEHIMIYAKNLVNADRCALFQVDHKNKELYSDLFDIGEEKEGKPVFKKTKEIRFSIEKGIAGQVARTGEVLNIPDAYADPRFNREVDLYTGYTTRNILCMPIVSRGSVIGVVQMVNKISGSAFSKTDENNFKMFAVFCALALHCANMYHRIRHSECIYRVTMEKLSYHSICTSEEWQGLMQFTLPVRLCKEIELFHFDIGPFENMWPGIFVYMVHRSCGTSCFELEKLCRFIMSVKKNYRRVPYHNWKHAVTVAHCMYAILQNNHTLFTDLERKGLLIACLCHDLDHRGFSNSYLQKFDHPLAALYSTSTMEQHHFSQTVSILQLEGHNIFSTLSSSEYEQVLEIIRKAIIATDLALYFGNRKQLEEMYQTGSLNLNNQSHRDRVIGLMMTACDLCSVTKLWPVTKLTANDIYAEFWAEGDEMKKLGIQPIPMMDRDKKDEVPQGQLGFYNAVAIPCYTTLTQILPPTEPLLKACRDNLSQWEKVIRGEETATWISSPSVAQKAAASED
Conditions: not given
`Cc1nc2ccc(C(F)(F)F)nc2n2c(-c3cc(OC4COCC4O)ccc3Cl)nnc12` (single isomer, unassigned) [Example 111b] showed a pIC50 of 5.67.
Same read-out and setting: in the case of `Cc1nc2ccc(C(F)(F)F)nc2n2c(-c3cc(C4(O)CCCOC4)ccc3Cl)nnc12` (single isomer, unassigned) [Example 114b] it was 5.00.
The same measure, in the same setting: in the case of `Cc1ccc(C2(O)CCC2)cc1-c1nnc2c(C)nc3cccnc3n12` [Example 73] it was 5.00.
Same read-out and setting: in the case of `Cc1nc2ccc(C(F)(F)F)nc2n2c(-c3cc(OC4COCC4O)ccc3Cl)nnc12` (single isomer, unassigned) [Example 111a] it was 5.74; in that of `Cc1nc2cccnc2n2c(-c3cc(C4(O)CCCOC4)ccc3Cl)nnc12` (single isomer, unassigned) [Example 112b], 5.60; in that of `Cc1nc2ccc(C3CC3)nc2n2c(-c3cc(C4(O)CCCOC4)ccc3Cl)nnc12` (stereo not shown) [Example 113], 5.50.
Take `Cc1nc2ccc(C3CC3)nc2n2c(-c3cc(OC4COCC4O)ccc3F)nnc12` (racemic) [Example 107]: the pIC50 is 7.66.
Same read-out and setting: in the case of `Cc1nc2ccc(C3CC3)nc2n2c(-c3cc(C4(O)CCOC4)ccc3Cl)nnc12` (racemic) [Example 97] it was 5.67.
In turn, `Cc1nc2ccc(C(F)(F)F)nc2n2c(-c3cc(OC4COCC4O)ccc3F)nnc12` (racemic) [Example 106] had a pIC50 of 5.71.
Still for that read-out and setting: in the case of `Cc1nc2ccc(C(F)(F)F)nc2n2c(-c3cc(C(C)(C)O)ccc3Cl)nnc12` [Example 103b] it was 5.00; in that of `Cc1ccc(C2(O)CCOCC2)cc1-c1nnc2c(C)nc3ccc(C(F)(F)F)nc3n12` [Example 96b], 5.00.

System in the next data set: not listed separately
The experiment in a line: Metabolic stability in pooled liver microsomes. Format: in vitro ADME, human. The following applies: human liver microsomes, 1 μM test compound, 37° C. The method, then: The metabolic stability of the compounds according to the invention has been investigated as follows:
The metabolic degradation of the test compound was assayed at 37° C. with pooled liver microsomes from various species. The final incubation volume of 100 μl per time point contains TRIS buffer pH 7.6 at room temperature (0.1 M), magnesium chloride (5 mM), microsomal protein (1 mg/mL for human and dog, 0.5 mg/mL for other species) and the test compound at a final concentration of 1 μM. Following a short preincubation period at 37° C., the reactions were initiated by addition of betanicotinamide adenine dinucleotide phosphate, reduced form (NADPH, 1 mM), and terminated by transferring an aliquot into solvent after different time points. […] The half-life was determined by the slope of the semi-logarithmic plot of the concentration-time profile.
Turning to `Cc1ccc(C2(O)CCC2)cc1-c1nnc2c(C)nc3cccnc3n12` [Example 73], the “Half-life - t½” value was determined as 2.17 h.
Still for that read-out and setting: in the case of `Cc1nc2cccnc2n2c(-c3cc(OC4CCOCC4)ccc3Cl)nnc12` [Example 20] it was 2.17 h; in that of `Cc1ccc2nc(C)c3nnc(-c4cc(O[C@@H]5CCOC5)ccc4Cl)n3c2n1` [Example 42], 2.17 h.
Still for that read-out and setting: in the case of `Cc1ccc2nc(C)c3nnc(-c4cc(O[C@H]5CCOC5)ccc4Cl)n3c2n1` [Example 43] it was 2.17 h; in that of `Cc1nc2cccnc2n2c(-c3cc(CCC(C)(C)O)ccc3Cl)nnc12` [Example 64], 2.17 h.
Still for that read-out and setting: in the case of `Cc1ccc2nc(C)c3nnc(-c4cc(C5(O)CCC5)ccc4Cl)n3c2n1` [Example 89] it was 2.17 h; in that of `Cc1nc2cccnc2n2c(-c3cc(C4(O)CCOCC4)ccc3Cl)nnc12` [Example 93], 2.17 h.
Regarding `Cc1nc2cccnc2n2c(-c3cc(OCC4(O)CCC4)ccc3Cl)nnc12` [Example 49], the “Half-life - t½” value was 2.17 h.
On the same count and under the same terms, in the case of `Cc1nc2ccc(C3(C)CC3)nc2n2c(-c3cc(C(C)(C)O)ccc3F)nnc12` [Example 72] it was 2.17 h; in that of `Cc1nc2ccc(C3CC3)nc2n2c(-c3cc(OC4COCC4O)ccc3Cl)nnc12` (single isomer, unassigned) [Example 56b], 1.03 h; in that of `Cc1ccc2nc(C)c3nnc(-c4cc(C(O)C(C)C)ccc4Cl)n3c2n1` (stereo not shown) [Example 59], 0.817 h.
Same read-out and setting: in the case of `Cc1nc2cccnc2n2c(-c3cc(OC4COCC4O)ccc3Cl)nnc12` (single isomer, unassigned) [Example 55a] it was 2.17 h; in that of `Cc1ccc(OC2COCC2O)cc1-c1nnc2c(C)nc3ccc(C4CC4)nc3n12` (racemic) [Example 57], 2.17 h; in that of `Cc1ccc2nc(C)c3nnc(-c4cc(OC[C@@H](C)O)ccc4Cl)n3c2n1` [Example 35], 2.17 h.
Still for that read-out and setting: in the case of `Cc1nc2cccnc2n2c(-c3cc(C4(O)CCC4)ccc3Cl)nnc12` [Example 87] it was 2.17 h; in that of `Cc1ccc(OCC2(O)CCC2)cc1-c1nnc2c(C)nc3cccnc3n12` [Example 50], 2.17 h; in that of `Cc1ccc2nc(C)c3nnc(-c4cc(C(C)O)ccc4Cl)n3c2n1` (stereo not shown) [Example 63], 2.17 h.
Regarding `Cc1ccc2nc(C)c3nnc(-c4cc(OC5CCOCC5)ccc4Cl)n3c2n1` [Example 32], the “Half-life - t½” value came to 2.17 h.
Same read-out and setting: in the case of `Cc1nc2ccc(C(C)C)nc2n2c(-c3cc(OCC(C)(C)O)ccc3F)nnc12` [Example 52] it was 2.17 h; in that of `Cc1nc2cccnc2n2c(-c3cc(CC(C)(C)O)ccc3Cl)nnc12` [Example 82], 2.17 h; in that of `Cc1nc2cccnc2n2c(-c3cc(C(C)(C)O)ccc3Cl)nnc12` [Example 70], 2.17 h.
Consider `Cc1nc2cccnc2n2c(-c3cc(OCCCO)ccc3Cl)nnc12` [Example 13], for which the “Half-life - t½” value stood at 2.17 h.
On the same count and under the same terms, in the case of `Cc1ccc2nc(C)c3nnc(-c4cc(OC[C@H](C)O)ccc4Cl)n3c2n1` [Example 34] it was 2.17 h.
On to `Cc1ccc(C2(O)CCOCC2O)cc1-c1nnc2c(C)nc3ccc(C4CC4)nc3n12` (racemic) [Example 104], for which the “Half-life - t½” value came to 2.17 h.
For `Cc1nc2ccc(C3CC3)nc2n2c(-c3cc(OC4COCC4O)ccc3Cl)nnc12` (single isomer, unassigned) [Example 58b], the “Half-life - t½” value worked out at 2.17 h.
Still for that read-out and setting: in the case of `Cc1nc2ccc(C3CC3)nc2n2c(-c3cc(OC4COCC4O)ccc3Cl)nnc12` (racemic) [Example 58a] it was 2.17 h; in that of `Cc1nc2cccnc2n2c(-c3cc(OC[C@H](C)O)ccc3Cl)nnc12` [Example 18], 2.17 h.
Turning to `Cc1ccc2nc(C)c3nnc(-c4cc(OC5CCC(F)(F)CC5)ccc4Cl)n3c2n1` [Example 30], the “Half-life - t½” value came to 2.17 h.
As for `Cc1ccc(OCC(C)(C)O)cc1-c1nnc2c(C)nc3ccc(C(C)C)nc3n12` [Example 51], the “Half-life - t½” value was 2.17 h.
For the molecule `Cc1nc2ccc(C3CC3)nc2n2c(-c3cc(C(C)(C)O)ccc3Cl)nnc12` [Example 85], the “Half-life - t½” value came to 2.17 h.

Staying with this data set, now noted: human, pooled liver microsomes, pH 7.6, human liver microsomes, 1 μM test compound, 37° C.; read-out: Half-life - t½.
`Cc1nc2ccc(C3CC3)nc2n2c(-c3cc(C4(O)CCC4)ccc3Cl)nnc12` [Example 88]: the half-life at 1 μM worked out at 0.883 h.
The same measure, in the same setting: in the case of `Cc1nc2ccc(C3CC3)nc2n2c(-c3cc(C4(O)CCOC4)ccc3Cl)nnc12` (racemic) [Example 97] it was 0.85 h.
Take `Cc1nc2ccc(C3CC3)nc2n2c(-c3cc(C4(O)CCC4)ccc3F)nnc12` [Example 84]: the half-life at 1 μM amounted to 0.65 h.
For `Cc1nc2ccc(C(C)C)nc2n2c(-c3cc(C4(O)CCC4)ccc3F)nnc12` [Example 92], the half-life at 1 μM came to 0.383 h.
On to `Cc1ccc(C(C)(C)O)cc1-c1nnc2c(C)nc3ccc(C(C)C)nc3n12` [Example 78], for which the half-life at 1 μM was determined as 1.32 h.
Same read-out and setting: in the case of `Cc1nc2ccc(C3CC3)nc2n2c(-c3cc(C(C)(C)CO)ccc3F)nnc12` [Example 101] it was 0.367 h; in that of `Cc1nc2ccc(C3CC3)nc2n2c(-c3cc(CC(C)(C)O)ccc3Cl)nnc12` [Example 83], 1.67 h; in that of `Cc1nc2ccc(C3CC3)nc2n2c(-c3cc(O)ccc3F)nnc12` [Example 5], 0.717 h.
The same measure, in the same setting: in the case of `CCCC(O)c1ccc(Cl)c(-c2nnc3c(C)nc4ccc(C)nc4n23)c1` (stereo not shown) [Example 61] it was 1.08 h; in that of `Cc1nc2ccc(C3CC3)nc2n2c(-c3cc(CCC(C)(C)O)ccc3F)nnc12` [Example 66], 0.95 h; in that of `Cc1ccc(O)cc1-c1nnc2c(C)nc3ccc(C4CC4)nc3n12` [Example 6], 1.1 h.
For the molecule `Cc1nc2ccc(C3CC3)nc2n2c(-c3cc(OC4COCC4O)ccc3Cl)nnc12` (single isomer, unassigned) [Example 56a], the half-life at 1 μM stood at 1.83 h.
On the same count and under the same terms, in the case of `Cc1nc2ccc(C3CC3)nc2n2c(-c3cc(OC4COCC4O)ccc3Cl)nnc12` (racemic) [Example 56] it was 2 h; in that of `Cc1nc2ccc(C3CC3)nc2n2c(-c3cc(CC(C)(C)O)ccc3F)nnc12` [Example 80], 1.38 h; in that of `Cc1nc2ccc(C(F)(F)F)nc2n2c(-c3cc(C4(O)CCOCC4)ccc3Cl)nnc12` [Example 96], 1.83 h.
`Cc1nc2ccc(C3CC3)nc2n2c(-c3cc(CCC(C)(C)O)ccc3Cl)nnc12` [Example 69]: the half-life at 1 μM came to 0.883 h.
Same read-out and setting: in the case of `Cc1nc2ccc(C3CC3)nc2n2c(-c3cc(OC4CCOCC4)ccc3Cl)nnc12` [Example 32a] it was 0.6 h.
